According to ChEMBL document CHEMBL5728544, “Compounds and methods for the targeted degradation of interleukin-1 receptor- associated kinase 4 polypeptides” (2021):

Target: T1, Interleukin-1 receptor-associated kinase 4 (Homo sapiens, UniProt Q9NWZ3)
T1 sequence (Q9NWZ3 whole entry): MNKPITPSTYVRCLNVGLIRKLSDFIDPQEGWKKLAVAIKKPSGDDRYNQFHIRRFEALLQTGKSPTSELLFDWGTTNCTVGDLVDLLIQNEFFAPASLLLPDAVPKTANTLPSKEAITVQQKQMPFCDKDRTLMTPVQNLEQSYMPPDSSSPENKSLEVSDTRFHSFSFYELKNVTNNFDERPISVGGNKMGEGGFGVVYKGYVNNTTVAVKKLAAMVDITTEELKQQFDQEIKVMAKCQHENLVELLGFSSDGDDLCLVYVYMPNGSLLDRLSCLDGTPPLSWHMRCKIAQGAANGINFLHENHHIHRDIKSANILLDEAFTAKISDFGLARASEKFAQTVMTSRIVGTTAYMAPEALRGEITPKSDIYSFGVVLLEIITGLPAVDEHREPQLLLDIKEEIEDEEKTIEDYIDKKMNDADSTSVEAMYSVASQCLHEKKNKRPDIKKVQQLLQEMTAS
Assay: Biochemical Assay: A Z′-Lyte assay based on a fluorescence resonance energy transfer (FRET) readout was developed for measuring IRAK4-dependent phosphorylation of a FRET-peptide substrate as described by Thermo Fisher Scientific (Grand Island, N.Y.). At a starting concentration of 1.5 mM, the identified compounds were serially diluted with 100% dimethyl sulfoxide (DMSO) in 3-fold increments, into Greiner bio-one 96-well plates (cat. #: 650201, Greiner bio-one, Monroe, N.C.). Compounds were then transferred to intermediate Greiner bio-one 96-well plates and diluted 10-fold with Kinase assay buffer (25 mM HEPES, pH 7.5, 10 mM MgCl2, 10 mM MnCl2, 1 mM EGTA, and 0.01% Brij-35, 2 mM DTT). Three μL of the serially diluted compounds were then transferred in duplicate to low-volume 384-well black proxiplates (cat. #: 6008269; Perkin Elmer, Akron, Ohio), to give duplicate twelve-point concentration curves. Six μl of a 2.5× solution of IRAK4 enzyme (cat #: 40064, BPS Bioscience, San Diego, Calif.) in kinase buffer was added to each well, followed by a 10 minutes pre-incubation step. Reactions were initiated by adding 6 μl of a 2.5× substrate mix of ATP and Z′-Lyte Ser/Thr 7 peptide (cat. #: PV3180, Thermo Fisher Scientific, Grand Island, N.Y.) and proceeded at room temperature for 1 hour. […]

## O=C1CCC(N2C(=O)c3ccc(OC4CCC(CN5CCN(Cc6ccc7c(c6)nc(NC(=O)c6cccc(C(F)(F)F)c6)n7C6CCC(CO)CC6)CC5)CC4)cc3C2=O)C(=O)N1 (stereo unspecified)
  IC50: < 30 nM
